Data: patent publication US20200315981A1, “COMPOSITIONS AND METHODS FOR NANOPARTICLE-BASED DRUG DELIVERY AND IMAGING” (Memorial Sloan Kettering Cancer Center, priority 2015, published 2020)
Where two headings read alike, the source gives them in different places.

Test system: human prostatic adenocarcinoma cell line PC3
Experiment: Cell viability studies, PC3
Type: cell-based
Conditions: PC-3, PC3 cells
Description: Subsequently, the dextran nanophores therapeutic potential in vitro and in vivo was investigated. […] This drug combination was selected, because it was previously reported that inhibition of the androgen receptor pathway leads to overactivation of the PI3K cascade, while suppression of PI3K upregulates androgen-receptor-mediated signaling. […] Doxorubicin and the MEK inhibitor AZD6244 (Selumetinib®) was co-loaded into dextran nanophores, since MEK is a downstream target of EGFR.

For `COc1cccc2c1C(=O)c1c(O)c3c(c(O)c1C2=O)C[C@@](O)(C(=O)CO)C[C@@H]3O[C@H]1C[C@H](N)[C@H](O)[C@H](C)O1` [doxorubicin], the IC50 (FIG. 6, read-out: IC50) was 6.5 µM and the IC50 (FIG. 9D, read-out: doxorubicin concentration causing 50% reduction in the viability of PC3 cells) was 8 µM.
